Experimental data reported in PubChem BioAssay (NCI).
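96-well plates; 48 h exposure; 5 concentrations. Endpoints by linear interpolation between flanking doses. Not reached: highest tested concentration assigned. At the GI50, growth is halved. At the TGI there is no net growth.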

What was measured:
Experiment in all cases: inhibition of tumour cell growth, NCI panel, 48 h
[1] = test system: 786-0 renal
[2] = test system: A498 renal
[3] = test system: A549 NSCLC
[4] = test system: ACHN renal
[5] = test system: BT-549 breast
[6] = test system: CAKI-1 renal
[7] = test system: CCRF-CEM leukemia
[8] = test system: COLO 205 colon
[9] = test system: DU-145 prostate
[10] = test system: EKVX NSCLC
[11] = test system: HCC-2998 colon
[12] = test system: HCT-116 colon
[13] = test system: HCT-15 colon
[14] = test system: HL-60(TB) leukemia
[15] = test system: HOP-62 NSCLC
[16] = test system: HOP-92 NSCLC
[17] = test system: HS 578T breast
[18] = test system: HT29 colon
[19] = test system: IGROV1 ovarian
[20] = test system: K-562 leukemia
[21] = test system: KM12 colon
[22] = test system: LOX IMVI melanoma
[23] = test system: M14 melanoma
[24] = test system: MALME-3M melanoma
[25] = test system: MCF7 breast
[26] = test system: MDA-MB-231 breast
[27] = test system: MDA-MB-435
[28] = test system: MDA-MB-468 breast
[29] = test system: MOLT-4 leukemia
[30] = test system: NCI-H226 lung
[31] = test system: NCI-H23 lung
[32] = test system: NCI-H460 lung
[33] = test system: NCI-H522 lung
[34] = test system: NCI/ADR-RES ovarian
[35] = test system: OVCAR-3 ovarian
[36] = test system: OVCAR-4 ovarian
[37] = test system: OVCAR-5 ovarian
[38] = test system: OVCAR-8 ovarian
[39] = test system: PC-3 prostate
[40] = test system: RPMI-8226 leukemia
[41] = test system: RXF 393 renal
[42] = test system: SF-268 CNS
[43] = test system: SF-295 CNS
[44] = test system: SF-539 CNS
[45] = test system: SK-MEL-2 melanoma
[46] = test system: SK-MEL-28 melanoma
[47] = test system: SK-MEL-5 melanoma
[48] = test system: SK-OV-3 ovarian
[49] = test system: SN12C renal
[50] = test system: SNB-19 CNS
[51] = test system: SNB-75 CNS
[52] = test system: SR leukemia
[53] = test system: SW-620 colon
[54] = test system: T-47D breast
[55] = test system: TK-10 renal
[56] = test system: U251 CNS
[57] = test system: UACC-257 melanoma
[58] = test system: UACC-62 melanoma
[59] = test system: UO-31 renal

With `O=C(CSc1nnc(-c2ccc(-c3nc4ccccc4[nH]3)cc2)o1)Nc1ccc(Br)cc1` the GI50 [1] was 2.17 µM, the TGI [1] was 4.29 µM and the GI50 [2] was 19 µM. The TGI [2] was 35.3 µM, the GI50 [3] was 2.4 µM and the TGI [3] was 6.24 µM. For the same molecule, the GI50 [4] was 3.55 µM, the TGI [4] was 12.8 µM and the GI50 [5] was 3.03 µM. The TGI [5] was 7.93 µM, the GI50 [6] was 2.03 µM and the TGI [6] was 4.83 µM. The GI50 [7] was 3.41 µM, the TGI [7] was 15.8 µM and the GI50 [8] was 10.6 µM. It also gave a TGI [8] of 30.5 µM, a GI50 [9] of 3.2 µM and a TGI [9] of 10.8 µM. The GI50 [10] was 4.2 µM, the TGI [10] was 16.3 µM and the GI50 [11] was 12.9 µM. The TGI [11] was 31.2 µM, the GI50 [12] was 3.43 µM and the TGI [12] was 13.7 µM. For the same molecule, the GI50 [13] was 3.66 µM, the TGI [13] was 15.1 µM and the GI50 [14] was 6.37 µM. For the same molecule, the TGI [14] was 33.1 µM, the GI50 [15] was 2.88 µM and the TGI [15] was 8.21 µM. It also gave a GI50 [16] of 3.24 µM, a TGI [16] of 11.5 µM and a GI50 [17] of 3.39 µM. For the same molecule, the TGI [17] was 16.3 µM, the GI50 [18] was 2.87 µM and the TGI [18] was 12.8 µM. For the same molecule, the GI50 [19] was 10.3 µM, the TGI [19] was 22.6 µM and the GI50 [20] was 3.01 µM. For the same molecule, the TGI [20] was greater than 100 µM, the GI50 [21] was 3.98 µM and the TGI [21] was 18.6 µM. It also gave a GI50 [22] of 1.73 µM, a TGI [22] of 3.48 µM and a GI50 [23] of 3.82 µM. For the same molecule, the TGI [23] was 17.8 µM, the GI50 [24] was 2.37 µM and the TGI [24] was 6.33 µM. For the same molecule, the GI50 [25] was 2.88 µM, the TGI [25] was 12.5 µM and the GI50 [26] was 4.38 µM. The TGI [26] was 15.1 µM, the GI50 [27] was 2.11 µM and the TGI [27] was 7.73 µM. For the same molecule, the GI50 [28] was 6.47 µM, the TGI [28] was 20.7 µM and the GI50 [29] was 3.26 µM. It also gave a TGI [29] of 18 µM, a GI50 [30] of 2.63 µM and a TGI [30] of 9.59 µM. For the same molecule, the GI50 [31] was 3.22 µM, the TGI [31] was 12.4 µM and the GI50 [32] was 1.95 µM. It also gave a TGI [32] of 4.54 µM, a GI50 [33] of 2.74 µM and a TGI [33] of 14.6 µM. The GI50 [34] was 5.14 µM, the TGI [34] was 19.1 µM and the GI50 [35] was 2.74 µM. It also gave a TGI [35] of 8.95 µM, a GI50 [36] of 3.23 µM and a TGI [36] of 12.3 µM. It also gave a GI50 [37] of 6.53 µM, a TGI [37] of 20.4 µM and a GI50 [38] of 4.11 µM. The TGI [38] was 15.6 µM, the GI50 [39] was 2.57 µM and the TGI [39] was 8.99 µM. It also gave a GI50 [40] of 3.24 µM, a TGI [40] of 36.1 µM and a GI50 [41] of 2.26 µM. It also gave a TGI [41] of 5.82 µM, a GI50 [42] of 2.44 µM and a TGI [42] of 6.61 µM. For the same molecule, the GI50 [43] was 2.31 µM, the TGI [43] was 5.97 µM and the GI50 [44] was 2 µM. For the same molecule, the TGI [44] was 4.7 µM, the GI50 [45] was 12.2 µM and the TGI [45] was 26.4 µM. It also gave a GI50 [46] of 2.62 µM, a TGI [46] of 7.91 µM and a GI50 [47] of 4.8 µM. The TGI [47] was 17.3 µM, the GI50 [48] was 12.1 µM and the TGI [48] was 34.9 µM. It also gave a GI50 [49] of 3.4 µM, a TGI [49] of 12.7 µM and a GI50 [50] of 5.36 µM. The TGI [50] was 18 µM, the GI50 [51] was 2 µM and the TGI [51] was 7.51 µM. The GI50 [52] was 4.57 µM, the TGI [52] was 40.1 µM and the GI50 [53] was 3.1 µM. For the same molecule, the TGI [53] was 11.6 µM, the GI50 [54] was 3.81 µM and the TGI [54] was 20.2 µM. For the same molecule, the GI50 [55] was 14.8 µM, the TGI [55] was 29.6 µM and the GI50 [56] was 6.78 µM. For the same molecule, the TGI [56] was 20.3 µM, the GI50 [57] was 4.76 µM and the TGI [57] was 20.5 µM. It also gave a GI50 [58] of 4.13 µM, a TGI [58] of 15.5 µM and a GI50 [59] of 5.91 µM. For the same molecule, the TGI [59] was 18.9 µM.
